US20170096422A1, “HETEROCYCLIC COMPOUND” (Takeda Pharmaceutical Company Limited, priority 2014, published 2017)

Each molecule was assayed against PKC θ (Homo sapiens, UniProt Q04759) (assay: PKC θ enzyme inhibition test (TR-FRET)). Details: 1 μM test compound, well without enzyme = 100% inhibition.
Type: biochemical
Procedure: PKC θ enzyme inhibitory activities of test compounds were measured by TR-FRET method. First, a test compound diluted with assay buffer (20 mM Tris-HCl (pH 7.5), 5 mM MgAcetate, 0.1 mM CaCl2, 1 mM DTT, 0.01% Tween20, 0.05% BSA, 10% PKC Activator (Millipore)) was added to 384-well plate at 2 μL each. Then, a solution diluted with assay buffer to […] of PKC θ and 1.2 μM of a fluorescence-labeled peptide substrate (Fluorescein-PKC Substrate, Life Technologies) was added by 2 μL. Then, enzyme reaction was started by adding 2 μL each of ATP solution prepared with assay buffer to 60 μM. After the reaction at room temperature for 1 hr, TR-FRET Dilution Buffer (Life Technologies) prepared to 20 mM EDTA, 0.6 nM terbium-labeled anti-phosphoserine antibody (Life Technologies) was added by 6 μL. After standing at room temperature for 1 hr, fluorescence intensity (excitation wavelength 340 nm, fluorescence wavelength 520 nm, delay time 100 microseconds) was measured by a plate reader, Envision (PerkinElmer). The inhibitory activity of each compound was calculated as relative activity value where fluorescence intensity of a well without enzyme is considered as 100% inhibition.

PKC θ, sequence (Q04759 whole entry): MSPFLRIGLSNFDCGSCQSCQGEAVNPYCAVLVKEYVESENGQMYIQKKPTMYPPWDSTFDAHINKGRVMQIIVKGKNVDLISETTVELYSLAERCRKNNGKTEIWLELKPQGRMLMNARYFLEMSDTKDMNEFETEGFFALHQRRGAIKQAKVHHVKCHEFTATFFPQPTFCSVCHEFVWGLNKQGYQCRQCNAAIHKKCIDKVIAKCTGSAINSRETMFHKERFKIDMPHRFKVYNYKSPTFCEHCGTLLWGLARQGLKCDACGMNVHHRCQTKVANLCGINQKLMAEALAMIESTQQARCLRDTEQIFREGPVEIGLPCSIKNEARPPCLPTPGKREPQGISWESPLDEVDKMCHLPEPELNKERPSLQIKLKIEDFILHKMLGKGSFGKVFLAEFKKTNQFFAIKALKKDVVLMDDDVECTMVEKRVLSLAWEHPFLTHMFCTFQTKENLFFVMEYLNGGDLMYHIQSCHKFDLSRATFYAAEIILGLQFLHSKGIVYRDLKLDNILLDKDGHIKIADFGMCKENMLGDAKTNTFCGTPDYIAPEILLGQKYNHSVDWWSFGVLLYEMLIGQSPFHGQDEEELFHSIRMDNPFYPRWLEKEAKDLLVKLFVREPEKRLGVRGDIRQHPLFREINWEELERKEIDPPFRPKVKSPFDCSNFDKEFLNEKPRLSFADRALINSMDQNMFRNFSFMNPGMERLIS

| SMILES | PKC θ inhibitory activity (%, 1 μM) [%] |
| --- | --- |
| CCOc1ccnc2[nH]c(=O)n(-c3ccc4ncc(CC)n4n3)c12 [Example 12, 7-ethoxy-1-(3-ethylimidazo[1,2b]pyridazin-6-yl)-1,3-dihydro-2H-imidazo[4,5-b]pyridin-2-one] | 91 |

Same assay, conditions: 1 μM test compound, well without enzyme = 100% inhibition, read-out: PKC θ inhibitory activity (%, 1 μM)

| SMILES | inhibition at 1 µM [%] |
| --- | --- |
| CCOc1ccnc2[nH]c(=O)n(-c3ccc4ncc(CC)n4c3)c12 [Example 11, 7-ethoxy-1-(3-ethylimidazo[1,2-a]pyridin-6-yl)-1,3-dihydro-2H-imidazo[4,5-b]pyridin-2-one] | 96 |
| CCOc1ccnc2[nH]c(=O)n(-c3ccc4ncn(C)c4n3)c12 [Example 13, 7-ethoxy-3′-methyl-3′H-1,5′-biimidazo[4,5-b]pyridin-2(3H)-one] | 90 |
| CCOc1ccnc2[nH]c(=O)n(-c3ccc4occ(C)c4c3)c12 [Example 15, 7-ethoxy-1-(3-methyl-1-benzo-furan-5-yl)-1,3-dihydro-2H-imidazo[4,5-b]pyridin-2-one] | 99 |
| CCOc1ccnc2[nH]c(=O)n(-c3ccn4ncc(CC)c4c3)c12 [Example 17, 7-ethoxy-1-(3-ethylpyrazolo[1,5-a]pyridin-5-yl)-1,3-dihydro-2H-imidazo[4,5-b]pyridin-2-one] | 100 |
| CCOc1ccnc2[nH]c(=O)n(-c3ccc4[nH]nc(C)c4c3)c12 [Example 18, 7-ethoxy-1-(3-methyl-1H-indazol-5-yl)-1,3-dihydro-2H-imidazo[4,5-b]pyridin-2-one] | 97 |
| CCOc1ccnc2[nH]c(=O)n(-c3ccc4nccc(OC)c4n3)c12 [Example 55, 7-ethoxy-1-(8-methoxy-1,5-naphthyridin-2-yl)-1,3-dihydro-2H-imidazo[4,5-b]pyridin-2-one] | 124 |
| CCOc1cnc2ccc(-n3c(=O)[nH]c4nccc(OCC)c43)cc2n1 [Example 93, 7-ethoxy-1-(3-ethoxyquinoxalin-6-yl)-1,3-dihydro-2H-imidazo[4,5-b]pyridin-2-one] | 94 |
| CCOc1ccnc2[nH]c(=O)n(-c3cc4c5c(cnc4cc3F)OCCO5)c12 [Example 94, 7-ethoxy-1-(8-fluoro-2,3-dihydro[1,4]dioxino[2,3-c]quinolin-9-yl)-1,3-dihydro-2H-imidazo[4,5-b]pyridin-2-one] | 101 |
| CCOc1ccnc2[nH]c(=O)n(-c3ccc4ncc(-c5cnn(C)c5)c(OC)c4c3)c12 [Example 177, 7-ethoxy-1-(4-methoxy-3-(1-methyl-1H-pyrazol-4-yl)quinolin-6-yl)-1,3-dihydro-2H-imidazo[4,5-b]pyridin-2-one] | 100 |
| CCOc1ccnc2[nH]c(=O)n(-c3ccc4ncc(-c5cn[nH]c5)c(OC)c4c3)c12 [Example 185, 7-ethoxy-1-(4-methoxy-3-(1H-pyrazol-4-yl)quinolin-6-yl)-1,3-dihydro-2H-imidazo[4,5-b]pyridin-2-one] | 101 |
| COc1cnnc2ccc(-n3c(=O)[nH]c4nccc(OC5CCC5)c43)cc12 [Example 204, 7-(cyclobutyloxy)-1-(4-methoxycinnolin-6-yl)-1,3-dihydro-2H-imidazo[4,5-b]pyridin-2-one] | 101 |

Second part, the molecule after the results:

| inhibition at 1 µM [%] | SMILES |
| --- | --- |
| 100 | CCOc1ccnc2[nH]c(=O)n(-c3ccc4ncn(C)c4c3)c12 [Example 7, 7-ethoxy-1-(1-methyl-1H-benzimidazol-6-yl)-1,3-dihydro-2H-imidazo[4,5-b]pyridin-2-one] |
| 90 | CCOc1ccnc2[nH]c(=O)n(-c3ccc4nccc(C(N)=O)c4c3)c12 [Example 27, 6-(7-ethoxy-2-oxo-2,3-dihydro-1H-imidazo[4,5-b]pyridin-1-yl)quinoline-4-carboxamide] |
| 102 | CCOc1ccnc2[nH]c(=O)n(-c3ccc4ncnc(OC)c4c3)c12 [Example 39, 7-ethoxy-1-(4-methoxyquinazolin-6-yl)-1,3-dihydro-2H-imidazo[4,5-b]pyridin-2-one] |
| 97 | CCOc1ccnc2[nH]c(=O)n(-c3ccc4nccc(OC)c4c3)c12 [Example 41, 7-ethoxy-1-(4-methoxyquinolin-6-yl)-1,3-dihydro-2H-imidazo[4,5-b]pyridin-2-one] |
| 101 | CCOc1ccnc2[nH]c(=O)n(-c3ccc4nncc(OC)c4c3)c12 [Example 60, 7-ethoxy-1-(4-methoxycinnolin-6-yl)-1,3-dihydro-2H-imidazo[4,5-b]pyridin-2-one] |
| 101 | CCOc1ccnc2[nH]c(=O)n(-c3ccc4ncc5c(c4c3)OCCO5)c12 [Example 75, 1-(2,3-dihydro[1,4]-dioxino[2,3-c]quinolin-9-yl)-7-ethoxy-1,3-dihydro-2H-imidazo[4,5-b]pyridin-2-one] |
| 102 | CCOc1ccnc2[nH]c(=O)n(-c3ccc4nccc(N5CCNCC5)c4c3)c12 [Example 92, 7-ethoxy-1-(4-(piperazin-1-yl)quinolin-6-yl)-1,3-dihydro-2H-imidazo[4,5-b]pyridin-2-one] |
| 102 | CCOc1ccnc2[nH]c(=O)n(-c3ccc4ncc(F)c(OC)c4c3)c12 [Example 230, 7-ethoxy-1-(3-fluoro-4-methoxyquinolin-6-yl)-1,3-dihydro-2H-imidazo[4,5-b]pyridin-2-one] |
